In paper PMC10326281, “Insights into the mechanisms governing P01 scorpion toxin effect against U87 glioblastoma cells oncogenesis” (Frontiers in Pharmacology, 2023):
Where a SMILES comes first, the peptide text is derived from it. Bridges are numbered along the chain shown (N, C = ends).

Columns and labels:
[1] = tested on: SK2 currents of U87 cells; test: Whole-cell patch clamp, K+ currents of U87 cells; assay type: cell-based, human; settings: P01 125 pM vs Leidab-7 50 nM, ns between treatments
Description: For U87 cells, whole-cell K^+ currents were generated by stepwise 8 mV depolarizing pulses from a constant holding potential of −90 up to +60 mV. The composition of extracellular solution is the same as that described above and the intracellular pipette solution is as follows in mM: K-glutamate 125, KCl 20, MgCl2 1, Mg-ATP 1, HEPES 10, CaCl2 0.7, EGTA 1, and pH was adjusted to 7.2 with KOH. The pCa is of 6.4 (10^−6.4 M of calcium concentration). Leidab-7 (Tocris, France) was used as reference peptide to selectively block SK2 currents in U87 cells.

α5 integrin = test: U87 cell adhesion in presence of anti-integrin antibodies, α5; assay type: cell-based, human; settings: 50 μg/mL P01, 30 min pre-incubation, 2 h at 37°C, anti-α5 (1/200), n = 3
Protocol: (§1) To study the implication of integrins in the P01 peptide activity, adhesion assays using anti-integrin blocking antibodies: anti- α1β1 (1/200), anti- αvβ3 (1/200), anti- α5 (1/200) and anti- β3 (1/200) were performed as described above, except that cells were pretreated with the active peptide P01 at 50 μg/mL.

[2] = tested on: apamin-sensitive receptor (SKCa channels); settings: selective blocker of SKCa channels displaced; previously reported, ref Zerrouk et al., 1996; cited from earlier work
Description: Our team has initiated the fractionation of Aa scorpion venom, in order to identify scorpion peptides targeting potassium channels involved in the oncological process. Thus, we succeeded to isolate one peptide well represented in this venom. Based on its N-terminal sequence and its mass fingerprint this peptide corresponded to the P01 toxin, previously described by ([Zerrouk et al., 1996]).

[3] = tested on: MDA-MB231 breast cancer cells; test: Cell adhesion assay, MDA-MB231; assay type: cell-based, human; settings: data not shown
Description: (§2) The ATCC (American Type Culture Collection, Rockville, MD, United States) cancer cell lines U87 (glioblastoma), MDA-MB231 (breast cancer) and LS174 (colon adenocarcinoma) were routinely cultured in DMEM supplemented with 10% fœtal bovine serum (FBS), 1% l-glutamine and 100 IU/mL penicillin/streptomycin. […] Rat SK2 cDNA cloned into pJA5 plasmid was a gift from Dr. Skolnik (university Langone Medical center, New York). Human SK3 cDNA cloned into Pipru vector was a king gift from Pr. Soriani (Université Côte d’Azur, CNRS, Inserm, Nice, France).
Adhesion assays were performed as previously described by ([Sarray et al., 2007]). Glioblastoma U87 cells in suspension (10^6 cells/mL) were treated with 50 μg/mL of P01 and deposited on wells coated with purified extracellular matrix (ECM): Fg at 50 μg/mL; Fn at 10 μg/mL; Coll-I at 50 μg/mL; laminin (Lam) at 15 μg/mL or poly-L-lysine (PL) at 20 μg/mL for U87. MDA-MB231 and LS174 cells were also used in their adequate ECM: Fg and Coll-I respectively. They were incubated to adhere to the substrate for 2 h or 24 h at 37°C. After washing, attached cells were fixed, stained by 0.1% crystal violet, lysed with 1% SDS and quantified by measuring absorbance at 560 nm. The specific adhesion is obtained by subtracting the absorbance obtained in the absence of adhesion substrate (no specific control). […]

SK3 channel = settings: Jurkat cells; ref Shakkottai et al., 2001; cited from earlier work
Description: (§3) This can be explained by the differential expression of either functional SK2 isoforms or other membrane receptors between HEK293 and Jurkat cells.

SK2 channel = settings: Jurkat cells; ref Shakkottai et al., 2001; cited from earlier work
Description: as §3

[4] = tested on: MDA-MB231 breast cancer cells; test: Cell proliferation test (crystal violet), MDA-MB231; assay type: cell-based, human; settings: 2–10 μg/mL, 72 h, n = 3
Description: as §2
The effect of the P01 peptide on cell proliferation was studied. The human cell lines U87, MDA-MB231 or LS174 (5,000 cells per well) were treated with 2; 5 and 10 μg/mL of P01 peptide. The plates were placed at 37°C for 72 h. Cellular proliferation was quantified at 560 nm by a spectrophotometer (Thermo-Multiskan EX, Shanghai, China) after treatment with 1% glutaraldehyde and staining with 0.1% crystal violet.
Every 24 h, a series of wells was washed with PBS, the cells were fixed with 1% glutaraldehyde, and preserved in PBS to follow the kinetics of proliferation. After 72 h, the cells were stained with crystal violet 0.1% and quantified by measuring the absorbance at 560 nm using a spectrophotometer (Thermo-Multiskan EX, Shanghai, China).

[5] = tested on: LS174 colon adenocarcinoma cells; test: Cell migration assay (modified Boyden chamber), LS174; assay type: cell-based, human; settings: 50 μg/mL, 5 h, collagen type I 50 μg/mL coating, n = 3
Description: as §2
Cell migration assay was performed using modified Boyden chamber (NeuroProbe Inc., Bethesda, MD, United States) as previously described ([Sarray et al., 2007]). Membranes were coated with fibrinogen (Fg) (50 μg/mL), fibronectin (Fn) (10 μg/mL), collagen type I (Coll-I) (50 μg/mL) for U87, MDA-MB231 and LS174 cells respectively, for 2 h at 37°C. Cells were harvested as a single cell suspension (10^6 cells/mL) and treated with P01 at 50 μg/mL. Then added to pre-coated membranes and allowed to migrate for 5 h at 37°C in Boyden chamber. Cells were fixed on the underside of the membrane, stained by 0.1% crystal violet and migration was quantified by measuring the absorbance at 560 nm using a spectrophotometer (Thermo-Multiskan EX, Shanghai, China).

U87 glioblastoma cells = test: Cell viability (MTT), U87; assay type: cell-based, human; settings: 25–200 μg/mL, 24 h, 10,000 cells per well, n = 3
Description: as §2
The human cell lines U87, MDA-MB231, or LS174 (10,000 cells per well) were treated with P01 peptide at different concentrations (25; 50; 100 and 200 μg/mL). After 24 h, the wells were washed with phosphate-buffered saline (PBS) and then the 3-(4,5-dimethylthiazol-2-yl)-2,5-diphenyltetrazolium bromide (MTT) (0.5 mg/mL) was added to the cells as previously described ([Kouba et al., 2020]). The crystals formed after the reduction of MTT by mitochondrial dehydrogenases were dissolved with dimethylsulfoxyde (DMSO). The quantification of live cells was achieved by measuring absorbance at 560 nm using a spectrophotometer (Thermo-Multiskan EX, Shanghai, China).

αvβ3 integrin = test: U87 cell adhesion in presence of anti-integrin antibodies, αvβ3; assay type: cell-based, human; settings: 50 μg/mL P01, 30 min pre-incubation, 2 h at 37°C, anti-αvβ3 (1/200), n = 3
Protocol: as §1

CC[C@H](C)[C@H](NC(=O)[C@@H]1CCCN1C(=O)[C@H](CCC(=O)O)NC(=O)[C@@H]1CSSC[C@@H]2NC(=O)[C@H](Cc3c[nH]cn3)NC(=O)[C@H](CCC(=O)O)NC(=O)[C@@H]3CCCN3C(=O)[C@@H]3CSSC[C@H](NC(=O)[C@H](CCCCN)NC(=O)[C@H](CC(=O)O)NC(=O)[C@H](CC(N)=O)NC(=O)[C@H](CC(=O)O)NC(=O)[C@H](CSSC[C@H](NC(=O)[C@H](CO)NC(=O)[C@@H](N)C(C)C)C(=O)N[C@@H](CCC(=O)O)C(=O)N[C@@H](CC(=O)O)C(=O)N3)NC(=O)[C@H](CCCCN)NC(=O)[C@H](C)NC(=O)[C@H](CCC(N)=O)NC(=O)[C@H](C)NC(=O)[C@H](CCCCN)NC(=O)[C@H](CCC(N)=O)NC(=O)[C@H]([C@@H](C)O)NC(=O)[C@H](CO)NC2=O)C(=O)N[C@@H](C(C)C)C(=O)N1)C(=O)O [P01] (H-VSCEDCPEHCSTQKAQAKCDNDKCVCEPI-OH; disulfide 3-19, 6-24, 10-26 (inferred); N-terminus and C-terminus assumed)
current density-voltage relationship compared with Leidab-7 [1]: similar | effect on adhesive function of α5 (α5 integrin): reduced the adhesive function | inhibition of 125I-apamin binding [2]: inhibit the binding of ^125I-apamin | effect on adhesion [3]: not affected | blocking activity on SK3 (SK3 channel): little or no blocking activity | blocking activity on SK2 (SK2 channel): little or no blocking activity | effect on cell proliferation [4]: no effect | effect on migration [5]: no effect | cytotoxic effect (cell viability) (U87 glioblastoma cells): did not have a cytotoxic effect | effect on adhesive function of αvβ3 (αvβ3 integrin): reduced the adhesive function
